# Experimental data from patent publication US9138421B2, “Platinum compounds for treating cell proliferative diseases, preparation method and use thereof” (priority 2011, dated 2015).
# Legend:
# esophagus cancer ECA109 = assay: MTT cytotoxicity, esophagus cancer ECA109; type: cell-based; conditions: n = 6
# Method: (§1) The toxic action of Embodiment platinum containing compounds was observed on tumor cells by MTT colorimetric method. Several kinds of tumor cells in exponential growth phase were prepared into single cell suspension, inoculated on 96 pore plat at the density of 4×10^4/hole, cultivated for 24 hours to enable to adhere to wall with 1640 culture medium containing 10% fetal calf serum (complete medium) at 37° C.; the final culture volume was 100 μl. Cell morphology was observed after culture for 24 hours.
# testis cell ST = assay: MTT cytotoxicity, testis cell ST; type: cell-based; conditions: n = 6
# Method: as §1
# [1] = system: lung cancer Lewis cell line; assay: In vivo antitumor activity, lung cancer Lewis in nude mice; conditions: 15 mg/kg, every 2 days, 4 times, end 30 days after inoculation
# gastric cancer MGC803 = assay: MTT cytotoxicity, gastric cancer MGC803; type: cell-based; conditions: n = 6
# Method: as §1
# lung cancer H292 = assay: MTT cytotoxicity, lung cancer H292; type: cell-based; conditions: n = 6
# Method: as §1
# colon cancer SW480 = assay: MTT cytotoxicity, colon cancer SW480; type: cell-based; conditions: n = 6
# Method: as §1
# [2] = system: colon cancer SW480 cell line; assay: In vivo antitumor activity, colon cancer SW480 in nude mice (1); conditions: SW480, 4 mg/kg, every other day, 4 times, tumor weighed after 10 days
# Description: The calculation formula of tumor inhabitation rate is: […]
# [3] = system: Pulmonary epithelial cell BEAS-2B; assay: MTT cytotoxicity, pulmonary epithelial cell BEAS-2B; type: cell-based; conditions: n = 6
# Method: as §1
# lung cancer Lewis = assay: MTT cytotoxicity, lung cancer Lewis; type: cell-based; conditions: n = 6
# Method: as §1
# Solubility in water = conditions: in water
# normal mice = assay: Acute toxic effect of platinum complex on normal mice (LD50); type: in vivo, Kunming mice; conditions: single intravenous administration in 5% glucose, 14 days observation, Bliss method
# Method: Test 1: Acute Toxic Effect of Platinum Complex on Normal Mice
# Embodiment platinum compound was dissolved with 5% glucose solution. […] Mortality and toxicity were observed after administration.
# [4] = system: colon cancer SW480 cell line; assay: In vivo antitumor activity, colon cancer SW480 in nude mice (2), dose series; conditions: 3 days, tumor weighed 24 hours after drug discontinuance
Compound,IC50 (esophagus cancer ECA109) [µM],IC50 (testis cell ST) [µM],tumor inhibition rate (%) [1] [%],IC50 (gastric cancer MGC803) [µM],IC50 (lung cancer H292) [µM],IC50 (colon cancer SW480) [µM],tumor inhibition rate (%) (x ±SD) [2],IC50 [3] [µM],IC50 (lung cancer Lewis) [µM],solubility (Solubility in water) [mg/mL],LD50 value (normal mice) [mmol/kg],"tumor inhibition rate (%) (x ±SD) ([4]; SW480, 3 mg/kg)","tumor inhibition rate (%) (x ±SD) ([4]; SW480, 5 mg/kg)","tumor inhibition rate (%) (x ±SD) ([4]; SW480, 10 mg/kg)","tumor inhibition rate (%) (x ±SD) ([4]; SW480, 15 mg/kg)"
"2-(2-diethylamine ethyl)-malonic.cis-1,4-(trans-2,3-cyclobutyl)-butanediamine platinum (II) phosphate [compound 26]",163,312,72.4 ± 16.78,234,136,–,–,–,–,–,–,–,–,–,–
"CCCN(CCC)CCC1C(=O)[O][Pt]([NH2])([NH2])[O]C1=O.O=P(O)(O)O [compound 7, 2-(2-di-n-propylamineethyl)-malonic-cis-diamino platinum (II) phosphate]",–,–,–,–,124,51,28.5 ± 7.65,75,128,–,–,–,–,–,–
"CCN(CC)CCC1C(=O)[O][Pt]2([NH]C3CCC(CC3)[NH]2)[O]C1=O.O=P(O)(O)O (stereo not drawn) [compound 27, [2-(2-diethylamine ethyl)-malonato].[cis-1,4-cyclohexyldiamine] platinum (II) phosphate]",350,360,71.3 ± 10.54,453,158,–,–,–,–,145,0.729,–,–,–,–
"[2-(2-diethylamine ethyl)-malonato].[cis-1,3-(2,2-(4-oxacyclohexyl))-propyldiamine]platinum (II) phosphate [compound 28]",256,138,73.3 ± 17.92,162,99,–,–,–,–,–,0.767,–,–,–,–
"[2-(2-dimethylamine ethyl)-malonato].[cis-trans-1,2-diaminomethylcyclobutane]platinum (II) phosphate [compound 25]",196,114,80.1 ± 9.65,341,53,–,–,–,–,–,0.520,–,–,–,–
[2-(3-di-n-propylamine propyl)-malonato].[cis-diamine] platinum (II) mesylate [compound 8],–,–,–,–,201,20,29.7 ± 8.81,49,57,–,0.806,40.4 ± 5.02,73.6 ± 9.18,74.4 ± 12.25,82.8 ± 10.07
